Source: patent US10703755B2, “Substituted purine derivative” (SUMITOMO DAINIPPON PHARMA CO., LTD., priority 2016, dated 2020)

Target: human TLR7 (Homo sapiens (Human), UniProt Q9NYK1)
Experiment: Test for evaluating the inhibition of the activation of human TLR7 (SEAP reporter, TLR7/NF-κB/SEAPorter HEK293 cell)
Format: cell-based
Conditions: R-848 200 nmol/L; for IC50: SEAP reporter; for inhibitory effect against TLR7 in the test for evaluating inhibition of the activation of TLR7: SEAP activity, result in words
How it was run: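 HEK293 cells stably expressing full-length human TLR7 and an NF-κB-driven SEAP reporter. They were grown in DMEM with 10% FBS and blasticidin, and seeded at 5×10^4 cells/well overnight at 37° C, 5% CO2. Inhibition of TLR7 activation was read as SEAP output.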

Sequence of human TLR7 (Q9NYK1 27-1049): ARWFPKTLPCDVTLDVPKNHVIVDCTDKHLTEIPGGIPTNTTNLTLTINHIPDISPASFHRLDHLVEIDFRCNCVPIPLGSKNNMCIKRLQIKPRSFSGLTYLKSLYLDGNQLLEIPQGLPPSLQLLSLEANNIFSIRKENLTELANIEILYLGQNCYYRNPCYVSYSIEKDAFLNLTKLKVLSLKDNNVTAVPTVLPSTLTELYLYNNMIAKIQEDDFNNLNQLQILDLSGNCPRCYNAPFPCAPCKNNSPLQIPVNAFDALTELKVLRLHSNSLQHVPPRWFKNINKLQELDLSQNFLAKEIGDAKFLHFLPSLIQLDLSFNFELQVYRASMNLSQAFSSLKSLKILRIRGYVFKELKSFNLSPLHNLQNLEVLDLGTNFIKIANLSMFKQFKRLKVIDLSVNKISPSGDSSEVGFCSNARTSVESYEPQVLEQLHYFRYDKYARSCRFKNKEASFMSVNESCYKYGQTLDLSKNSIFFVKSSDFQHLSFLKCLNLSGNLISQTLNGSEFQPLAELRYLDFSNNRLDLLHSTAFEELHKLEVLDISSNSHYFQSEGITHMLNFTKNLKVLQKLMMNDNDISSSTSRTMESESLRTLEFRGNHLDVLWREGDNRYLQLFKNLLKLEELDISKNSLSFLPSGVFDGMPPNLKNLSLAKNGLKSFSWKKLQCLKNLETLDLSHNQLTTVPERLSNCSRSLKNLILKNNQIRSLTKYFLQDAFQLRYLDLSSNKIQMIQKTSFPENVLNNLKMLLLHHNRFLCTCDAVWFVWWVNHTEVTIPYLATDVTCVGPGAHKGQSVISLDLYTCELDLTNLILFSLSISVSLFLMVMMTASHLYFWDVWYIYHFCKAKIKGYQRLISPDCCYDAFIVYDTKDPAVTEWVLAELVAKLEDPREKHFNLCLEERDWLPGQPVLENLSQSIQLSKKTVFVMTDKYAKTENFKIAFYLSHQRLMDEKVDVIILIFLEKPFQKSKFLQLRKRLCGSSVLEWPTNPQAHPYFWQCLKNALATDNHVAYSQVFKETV

Row | Compound | IC50 [nM] | inhibitory effect against TLR7 in the test for evaluating inhibition of the activation of TLR7
1 | COc1nc(N)c2nc(-c3cncc(F)c3)n(Cc3ccc(CN(C)C)cc3)c2n1 [Example 150] | 500 | –
2 | CN(C)Cc1ccc(Cn2c(-c3cncc(F)c3)nc3c(N)nc(OC4CCOCC4)nc32)cc1 [Example 151] | 16600 | –
3 | CN(C)Cc1ccc(Cn2c(-c3cncc(F)c3)nc3c(N)nc(OCC4CCOCC4)nc32)cc1 [Example 152] | 2900 | –
4 | CN(C)Cc1ccc(Cn2c(-c3cncc(F)c3)nc3c(N)nc(N4CCC4)nc32)cc1 [Example 153] | 5800 | –
5 | CCCCNc1nc(N)c2nc(-c3cncc(F)c3)n(Cc3ccc(CN(C)C)cc3)c2n1 [Example 154] | 13600 | –
6 | CCCCN(C)c1nc(N)c2nc(-c3cncc(F)c3)n(Cc3ccc(CN(C)C)cc3)c2n1 [Example 155] | 8100 | –
7 | Cc1nc(N)c2nc(-c3cncc(F)c3)n(Cc3ccc(CN(C)C)cc3)c2n1 [Example 156, 9-{4-[(Dimethylamino)methyl]benzyl}-8-(5-fluoropyridin-3-yl)-2-methyl-9H-purine-6-amine] | 5000 | –
8 | CCc1nc(N)c2nc(-c3cncc(F)c3)n(Cc3ccc(CN(C)C)cc3)c2n1 [Example 157] | 8900 | –
9 | COCC(C)Oc1nc(N)c2nc(-c3cncc(F)c3)n(Cc3ccc(CN(C)C)cc3)c2n1 (centres unmarked) [Example 158, 9-{4-[(Dimethylamino)methyl]benzyl}-8-(5-fluoropyridin-3-yl)-2-[(1-methoxypropan-2-yl)oxy]-9H-purine-6-amine] | 13700 | –
10 | CN(C)Cc1ccc(Cn2c(-c3cncc(F)c3)nc3c(N)nc(OCC(F)F)nc32)cc1 [Example 159] | 930 | –
11 | CN(C)Cc1ccc(Cn2c(-c3cncc(F)c3)nc3c(N)nc(OCC4CC4)nc32)cc1 [Example 160] | 1300 | –
12 | COc1nc(N)c2nc(-c3cncc(F)c3)n(Cc3ccc(CN4C[C@@H]5C[C@H]4CN5C)cc3)c2n1 [Example 161] | 28 | potent inhibitory effect against TLR7
13 | CCCOc1nc(N)c2nc(-c3cncc(F)c3)n(Cc3ccc(CN(C)C)cc3)c2n1 [Example 162] | 210 | –
14 | CCOc1nc(C)c2nc(-c3cncc(F)c3)n(Cc3cnn(C4CCN(C)C4)c3)c2n1 (centres unmarked) [Example 164] | 170 | –
15 | COc1nc(C)c2nc(-c3cncc(F)c3)n(Cc3ccc(C4CN5CCC4CC5)cc3)c2n1 (centres unmarked) [Example 165, 9-[4-(1-Azabicyclo[2.2.2]oct-3-yl)benzyl]-8-(5-fluoropyridin-3-yl)-2-methoxy-6-methyl-9H-purine] | 16 | potent inhibitory effect against TLR7
16 | CCOc1nc(C)c2nc(-c3cncc(F)c3)n(Cc3cnn(C4CCN(C)CC4)c3)c2n1 [Example 166] | 50 | potent inhibitory effect against TLR7
17 | CCOc1nc(C)c2nc(-c3cncc(F)c3)n(Cc3cnn(C4CN5CCC4CC5)c3)c2n1 (centres unmarked) [Example 167] | 110 | –
18 | CCOc1nc(C)c2nc(-c3cncc(F)c3)n(Cc3cccnc3)c2n1 [Example 168] | 1400 | –
19 | CCOc1nc(C)c2nc(-c3cncc(F)c3)n(Cc3ccc(C4CCCN4C)cc3)c2n1 (centres unmarked) [Example 170] | 82 | –

Row | Compound | IC50 [nM] | inhibitory effect against TLR7 in the test for evaluating inhibition of the activation of TLR7
20 | CCOc1nc(C)c2nc(-c3cncc(F)c3)n(Cc3ccc(C4CN5CCC4CC5)cc3F)c2n1 (centres unmarked) [Example 172] | 3 | potent inhibitory effect against TLR7
21 | CCOc1nc(C)c2nc(-c3cncc(F)c3)n(Cc3ccc(CN4CCN5CC[C@@H]4C5)cc3)c2n1 [Example 174, 9-{4-[(5R)-1,4-diazabicyclo[3.2.1]oct-4-ylmethyl]benzyl}-2-ethoxy-8-(5-fluoropyridin-3-yl)-6-methyl-9H-purine] | 26 | potent inhibitory effect against TLR7
22 | CCOc1nc(N)c2nc(-c3cncc(F)c3)n(Cc3ccc([C@@H]4CN5CCC4CC5)cc3)c2n1 [Example 175, 9-{4-[(3R)-1-Azabicyclo[2.2.2]oct-3-yl]benzyl}-2-ethoxy-8-(5-fluoropyridin-3-yl)-9H-purine-6-amine] | 94 | –
23 | CCOc1nc(N)c2nc(-c3cncc(F)c3)n(Cc3ccc([C@H]4CN5CCC4CC5)cc3)c2n1 [Example 176, 9-{4-[(3S)-1-azabicyclo[2.2.2]oct-3-yl]benzyl}-2-ethoxy-8-(5-fluoropyridin-3-yl)-9H-purine-6-amine] | 11 | potent inhibitory effect against TLR7
24 | COc1nc(C)c2nc(-c3cncc(F)c3)n(Cc3ccc([C@@H]4CN5CCC4CC5)cc3)c2n1 [Example 177, 9-{4-[(3R)-1-Azabicyclo[2.2.2]oct-3-yl]benzyl}-8-(5-fluoropyridin-3-yl)-2-methoxy-6-methyl-9H-purine] | 10 | –
25 | CCCCOc1nc(N)c2nc(-c3ccc(N(C)C)cc3)n(Cc3ccccc3)c2n1 [Example 179] | 16200 | –
26 | COCCOc1nc(N)c2nc(-c3cncc(S(C)(=O)=O)c3)n(Cc3ccc(CN(C)C)cc3)c2n1 [Example 181] | 19700 | –
27 | CCOc1nc(N)c2nc(-c3cncc(F)c3)n(Cc3cccc(C#N)c3)c2n1 [Example 237] | 2020 | –
28 | CCOc1nc(N)c2nc(-c3cncc(F)c3)n(Cc3cc(F)ccc3F)c2n1 [Example 240] | 357 | –
29 | COc1nc(C)c2nc(-c3cncc(F)c3)n(Cc3cnn(C)c3)c2n1 [Example 243] | 2660 | –
30 | CCOc1nc(C)c2nc(-c3cncc(F)c3)n(Cc3cnn(CCN(C)C)c3)c2n1 [Example 244] | 445 | –
31 | CCOc1nc(C)c2nc(-c3cncc(F)c3)n(Cc3cnn(CCCN(C)C)c3)c2n1 [Example 245] | 198 | –
32 | CCOc1nc(C)c2nc(-c3cncc(F)c3)n(Cc3cnn(CCN4CCCC4)c3)c2n1 [Example 246] | 300 | –
33 | CCOc1nc(C)c2nc(-c3cncc(F)c3)n(Cc3cnn(CCCN4CCCC4)c3)c2n1 [Example 247] | 85 | –
34 | CCOc1nc(C)c2nc(-c3cncc(F)c3)n(Cc3cnn(CCN4CCOCC4)c3)c2n1 [Example 248] | 248 | –
35 | CCOc1nc(C)c2nc(-c3cncc(F)c3)n(Cc3cnn(CCCN4CCOCC4)c3)c2n1 [Example 249] | 100 | –
36 | COc1nc(C)c2nc(-c3cncc(F)c3)n(Cc3cnn(CCN(C)C)c3)c2n1 [Example 250] | 200 | –
37 | COc1nc(C)c2nc(-c3cncc(F)c3)n(Cc3cnn(CCCN(C)C)c3)c2n1 [Example 251] | 180 | –
38 | COc1nc(C)c2nc(-c3cncc(F)c3)n(Cc3ccc(CO)cc3F)c2n1 [Example 258] | 169 | –

Row | Compound | IC50 [nM] | inhibitory effect against TLR7 in the test for evaluating inhibition of the activation of TLR7
39 | COc1nc(C)c2nc(-c3cncc(F)c3)n(Cc3ccc(CN(C)C)cc3F)c2n1 [Example 259, 1-(3-fluoro-4-{[8-(5-fluoropyridin-3-yl)-2-methoxy-6-methyl-9H-purin-9-yl]methyl}phenyl)-N,N-dimethylmethanamine] | 28 | potent inhibitory effect against TLR7
40 | COc1nc(C)c2nc(-c3cncc(F)c3)n(Cc3ccc(CN4CCC4)cc3F)c2n1 [Example 260, 9-[4-(azetidin-1-ylmethyl)-2-fluorobenzyl]-8-(5-fluoropyridin-3-yl)-2-methoxy-6-methyl-9H-purine] | 18 | potent inhibitory effect against TLR7
41 | CCOC1CN(Cc2ccc(Cn3c(-c4cncc(F)c4)nc4c(C)nc(OC)nc43)c(F)c2)C1 [Example 261] | 1160 | –
42 | CCOc1nc(C)c2nc(-c3cncc(F)c3)n(Cc3ccc(CN4CCN(C)CC4)cc3)c2n1 [Example 262] | 27 | potent inhibitory effect against TLR7
43 | CCOc1nc(C)c2nc(-c3cncc(F)c3)n(Cc3ccc(CN4CCCC4)cc3)c2n1 [Example 263] | 102 | –
44 | CCOc1nc(C)c2nc(-c3cncc(F)c3)n(Cc3ccc(CN4CCCCC4)cc3)c2n1 [Example 264] | 63 | potent inhibitory effect against TLR7
45 | CCOc1nc(C)c2nc(-c3cncc(F)c3)n(Cc3ccc(CN4[C@@H]5CC[C@H]4CN(C)C5)cc3)c2n1 [Example 265] | 57 | potent inhibitory effect against TLR7
46 | CCOc1nc(C)c2nc(-c3cncc(F)c3)n(Cc3ccc(CN(CC)CC)cc3)c2n1 [Example 266] | 29 | potent inhibitory effect against TLR7
47 | CCOc1nc(C)c2nc(-c3cncc(F)c3)n(Cc3cnn(CC4CCCNC4)c3)c2n1 (centres unmarked) [Example 268] | 27 | –
48 | CCOc1nc(C)c2nc(-c3cncc(F)c3)n(Cc3cnn(CC4CCCNC4)c3)c2n1 (centres unmarked) [Example 269] | 19 | –
49 | CCOc1nc(C)c2nc(-c3cncc(F)c3)n(Cc3cnn(CC4CCNC4)c3)c2n1 (centres unmarked) [Example 270] | 272 | –
50 | CCOc1nc(C)c2nc(-c3cncc(F)c3)n(Cc3cnn(CC4CCNC4)c3)c2n1 (centres unmarked) [Example 271] | 99 | –
51 | CCOc1nc(C)c2nc(-c3cncc(F)c3)n(Cc3cnn(CC4CN(C)CCO4)c3)c2n1 (centres unmarked) [Example 272] | 261 | –
52 | CCOc1nc(C)c2nc(-c3cncc(F)c3)n(Cc3cnn(CC4CN(C)CCO4)c3)c2n1 (centres unmarked) [Example 273] | 200 | –
53 | CCOc1nc(C)c2nc(-c3cncc(F)c3)n(Cc3cnn(CC4COCCN4C)c3)c2n1 (centres unmarked) [Example 274] | 100 | –
54 | CCOc1nc(C)c2nc(-c3cncc(F)c3)n(Cc3cnn(CC4CCCN(C)C4)c3)c2n1 (centres unmarked) [Example 276] | 24 | potent inhibitory effect against TLR7
55 | CCOc1nc(C)c2nc(-c3cncc(F)c3)n(Cc3cnn(CC4CCCN(C)C4)c3)c2n1 (centres unmarked) [Example 277] | 23 | potent inhibitory effect against TLR7
56 | CCOc1nc(C)c2nc(-c3cncc(F)c3)n(Cc3cnn(CC4CCN(C)C4)c3)c2n1 (centres unmarked) [Example 278] | 72 | potent inhibitory effect against TLR7
